pKd: −log10 of the molar value. No end group written: not given here.
molecular target: T1, purified VDAC1 (Homo sapiens, UniProt P21796); experiment: Microscale thermophoresis (MST); format: binding; conditions: not given
Protocol: MST analysis was performed using a NanoTemper Monolith NT.115 apparatus as described previously. Briefly, purified VDAC1 was fluorescently labeled using a NanoTemper Protein labeling kit BLUE (L001, NanoTemper Technologies, Munich, Germany). A constant concentration of the protein (66 nM) was incubated with different concentrations of the indicated peptide in MST binding buffer (10 mM tricine-HCl, 100 mM NaCl, pH = 7.4) for 30 min at 37 °C in the dark. Afterwards, 3–5 µl of the samples were loaded into a monolith glass capillary (NanoTemper) and a thermophoresis analysis was performed (LED 80%, IR laser 80%).

T1 sequence (P21796 whole entry, species assumed): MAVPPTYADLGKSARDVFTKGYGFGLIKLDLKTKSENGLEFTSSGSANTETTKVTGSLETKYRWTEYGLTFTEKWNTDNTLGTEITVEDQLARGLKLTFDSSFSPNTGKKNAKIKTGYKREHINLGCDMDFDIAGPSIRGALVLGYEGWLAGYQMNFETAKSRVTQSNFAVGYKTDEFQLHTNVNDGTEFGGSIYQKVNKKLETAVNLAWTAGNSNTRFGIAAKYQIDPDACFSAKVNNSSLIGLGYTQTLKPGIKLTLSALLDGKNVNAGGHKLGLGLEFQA

Sequence | pKd
MVVEHPEFLKAGKEPGLQIWRVEKFRQIKIWFQNRRMKWKK [2G8-Antp] | 5.30

same assay, conditions: fluorescently labeled VDAC1 66 nM, peptide 2.5-30 µM, 30 min at 37 °C; read-out: Kd

Sequence | pKd
NEFGYSNRVVDLMAHMASKE [2D1] | 5.10

molecular target: T1, purified VDAC1; experiment: Glass-bound peptide array probed with purified VDAC1 and anti-VDAC1 antibodies; format: binding; set-up: key: +: low; ++: medium; +++: high; conditions: glass-bound peptide array incubated 4 h with purified VDAC1 (64 nM); antibody against VDAC1 N-terminus; chemiluminescence
Protocol: A customized peptide array was produced by INTAVIS Peptide Services (GmbH & Co. KG, Tübingen, Germany). It comprised 768 peptide sequences derived from 19 VDAC1-interacting proteins that were arrayed on a glass slide. Each peptide was composed of 25 amino acids with an overlap of 15 amino acids with the peptides before and following it.
The interaction of purified VDAC1 with glass-bound peptide arrays was assessed by washing the slide three times, 10 min each, with TBST (150 mM NaCl, 50 mM Tris/HCl, pH 7.4, 0.1% Tween-20), followed by overnight incubation with blocking buffer (TBS, pH 7.8, containing low-fat dry milk, 2.5%, w/v) at 4 °C. Then slides were incubated with purified VDAC1 in protein-interacting buffer (20 mM HEPES, 100 mM KCl, pH,7.4, PBS) for 4 h at room temperature (RT). After washing, with TBST, slides were incubated overnight at 4 °C with anti-VDAC1 antibody against a sequence of 150–250 amino acids or against the VDAC1-N-terminus. Slides were then washed with TBST, followed by the appropriate secondary anti-HRP conjugated antibody for 2 h at RT. They were washed again with TBST and developed using enhanced chemiluminescence EZ-ECL (Biological Industries), according to the manufacturer’s instructions. The signal was captured in the dark using FUSION-FX (Vilber Lourmat) software.

Sequence | Spot intensity, detected using anti-N-terminus VDAC1
NGKLVINGNPITIFQERDPSKIKWG [2B21, array peptide from GAPDH1] | +
NMKLTRAQFEGIVTDLIRRTIAPCQ [2O9, array peptide from HSP-70] | +
PASTGAAKAVGKVIPELNGKLTGMA [2C13, array peptide from GAPDH1] | +
PLAESITDVLVRTKRDWLVKQRGWD [2E12, array peptide from Mcl-1] | ++
PYQLTWGRPSTRIQQQLGQLTLENL [2F24] | +++
QGCLASVGVLTQSCTTPHLHSILKA [2F13] | ++
QVSVLPEGGETPLFKQFFKNWRDPD [2H20, array peptide from gelsolin isoform b] | ++
RAVQHREVQGFESATFLGYFKSGLK [2G18, array peptide from gelsolin isoform b] | +
RERLLGWIQDQGGWGLPLAESLKRL [1B12, array peptide from BAX] | +++
RGPTAARHQDSWNGLSHEAFRLVSR [2M21, array peptide from HSP-70] | +
RVVALFYFASKLVLKALCTKVPELI [1B8, array peptide from BAX] | ++
RYGRELRRMSDEFVDSFKKGLPRPK [1A13, array peptide from BAD] | +
SILEIQKGVFEVKSTNGDTFLGGED [2N23, array peptide from HSP-70] | +++
SKLVLKALCTKVPELIRTIMGWTLD [1B9, array peptide from BAX] | +
SNTTAIAEAWARLDHKFDLMYAKRA [2B6, array peptide from tubulin alpha 1b] | ++
SPFRGRSRSAPPNLWAAQRYGRELR [1A11, array peptide from BAD] | +
SPPSTLTPDSRRVARPPPIGAEVPD [2D11, array peptide from Mcl-1] | +

Sequence | Spot intensity, detected using anti-N-terminus VDAC1
SSWTRVFQSWWDRNLGRGSSAPSQ [1A17, array peptide from BAD] | +
STRIQQQLGQLTLENLQMLPESEDE [2G1] | ++
SVKRVTQDPKLQMGKKLPLHLTLPQ [1N4, array peptide from CD4] | ++
TAFQGMLRKLDIKNEDDVKSLSRVM [2E5, array peptide from Mcl-1] | +
TDVLLLDVTPLSLGIETLGGVFTKL [2O19, array peptide from HSP-70] | ++
TEDELPYDDCVFGGQRLTL [2G6] | +
TGSGFTSLLMERLSVDYGKKSKLEF [2A4, array peptide from tubulin alpha 1b] | +
TKVPELIRTIMGWTLDFLRERLLGW [1B10, array peptide from BAX] | +++
TPPPAEEEEDELYRQSLEIISRYLR [2D22, array peptide from Mcl-1] | ++
TPVQSRVVQGKEPAHLMSLFGGKPM [2I12, array peptide from gelsolin isoform b] | +
TVPTPHLDGKHVVFGQVIKGIGVAR [1I7, array peptide from cyclophilin D] | +
VDCIVRIPKEQGVLSFWRGNLANVI [1F18, array peptide from ANT3] | ++
VGKSGTEREFRGLGDCLVKITKSDG [1G4, array peptide from ANT3] | +++
VGKVIPELNGKLTGMAFRVPTANVS [2C14, array peptide from GAPDH1] | +++
VSSITASLRFDGALNVDLTEFQTNL [2A14, array peptide from tubulin alpha 1b] | +
YKGGTSREGGQTAPASTRLFQVRAN [2I15, array peptide from gelsolin isoform b] | +

same assay, conditions: glass-bound peptide array incubated 4 h with purified VDAC1 (64 nM); antibody against VDAC1 amino acids 150-250; chemiluminescence

Sequence | Spot intensity, detected using anti-VDAC1 internal sequence
NMKLTRAQFEGIVTDLIRRTIAPCQ [2O9, array peptide from HSP-70] | ++
QLTLENLQMLPESEDEESYDTESEF [2G2] | ++
RERLLGWIQDQGGWGLPLAESLKRL [1B12, array peptide from BAX] | +
SILEIQKGVFEVKSTNGDTFLGGED [2N23, array peptide from HSP-70] | +++
TDVLLLDVTPLSLGIETLGGVFTKL [2O19, array peptide from HSP-70] | +
TGSGFTSLLMERLSVDYGKKSKLEF [2A4, array peptide from tubulin alpha 1b] | +
VSSITASLRFDGALNVDLTEFQTNL [2A14, array peptide from tubulin alpha 1b] | +++
YKSEGTFGIHVAENPSIQLLEGNPG [1L13, array peptide from MAVS] | ++
YQVSPLAARLLYPYLAWLAFTTTLN [1H11, array peptide from TSPO] | +
